Laboratory results reported in the Kinase Knowledgebase extract (Sharma et al. 2016).

Columns and labels:
MAPK14 [1] = molecular target: MAPK14 (UniProt Q16539)
MAPK14 [2] = molecular target: MAPK14 (UniProt Q16539); remark: listed apart in the source
MAPK14 [3] = molecular target: MAPK14 (UniProt Q16539); remark: listed apart in the source

MAPK14, sequence (Q16539 whole entry, looked up): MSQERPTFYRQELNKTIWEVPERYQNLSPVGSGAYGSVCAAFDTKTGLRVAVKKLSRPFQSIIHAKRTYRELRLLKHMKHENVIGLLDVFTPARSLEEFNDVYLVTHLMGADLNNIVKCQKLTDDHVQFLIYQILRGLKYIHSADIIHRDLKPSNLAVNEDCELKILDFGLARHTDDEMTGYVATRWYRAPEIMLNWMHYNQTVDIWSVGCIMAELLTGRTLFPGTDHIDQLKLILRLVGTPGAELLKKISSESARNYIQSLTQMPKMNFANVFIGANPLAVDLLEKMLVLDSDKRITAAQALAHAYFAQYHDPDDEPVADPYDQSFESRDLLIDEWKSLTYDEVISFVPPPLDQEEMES

SMILES | IC50 (MAPK14 [1]) [µM] | IC50 (MAPK14 [2]) [µM] | IC50 (MAPK14 [3]) [µM]
Fc1ccc(-c2ncn(C3CCNCC3)c2-c2ccnc(Oc3ccccc3)c2)cc1 | < 50 | < 50 | < 50
Fc1ccc(-c2ncn(C3CCNCC3)c2-c2ccnc(Oc3ccc(Cl)cc3)c2)cc1 | < 50 |  | 
Fc1ccc(-c2ncn(C3CCNCC3)c2-c2ccnc(Sc3ccccc3)c2)cc1 | < 50 |  | < 50
Fc1ccc(Oc2nccc(-c3c(-c4ccc(F)cc4)ncn3CCCN3CCOCC3)n2)cc1 |  | < 50 | < 50
Cn1nnnc1Sc1cc(-c2c(-c3ccc(F)cc3)ncn2C2CCNCC2)ccn1 | < 50 | < 50 | < 50
Fc1ccc(-c2ncn(CCCN3CCOCC3)c2-c2ccnc(Oc3ccccc3)n2)cc1 | < 50 | < 50 | 
Fc1ccc(-c2ncn(C3CCNCC3)c2-c2ccnc(Oc3ccc(OCc4ccccc4)cc3)c2)cc1 | < 50 |  | 

Results, then the compound that gave them:

IC50 (MAPK14 [1]) [µM] | IC50 (MAPK14 [2]) [µM] | IC50 (MAPK14 [3]) [µM] | SMILES
< 50 | < 50 | < 50 | Fc1ccc(Oc2cc(-c3c(-c4ccc(F)cc4)ncn3C3CCNCC3)ccn2)cc1
< 50 |  |  | Cc1ccc(Oc2cc(-c3c(-c4ccc(F)cc4)ncn3C3CCNCC3)ccn2)cc1
< 50 | < 50 | < 50 | COc1ccc(Oc2cc(-c3c(-c4ccc(F)cc4)ncn3C3CCNCC3)ccn2)cc1
